One compound from ChEMBL document CHEMBL5143521, “Identification of a selective BRD4 PROTAC with potent antiproliferative effects in AR-positive prostate cancer based on a dual BET/PLK1 inhibitor” (Eur J Med Chem, 2022) can be followed below.

Molecules are shown by their SMILES. Active and inactive are the calls of the source. The rule behind the calls is not given here.

Assay [1] relates to CWR22R. Nature of the assay: Induction of cell cycle arrest in AR-positive human 22Rv1 cells assessed as downregulation of CDK6 expression at 100 to 1000 nM measured after 72 hrs by Western blot analysis. In kind it is functional, cell-based. The settings on record: dose 100-1000 nM. (In general: A western blot detects proteins with antibodies after separation by electrophoresis.)

The test system of assay [2] is DU-145. Nature of the assay: Antiproliferative activity against AR-negative human castration resistant DU-145 cells assessed as reduction in cell viability measured after 4 days by MTT assay. In kind it is functional, cell-based. Conditions: DU-145, 96 h. For orientation: Formazan colour is commonly taken as a measure of viable cells.
The test system of assay [3] is CWR22R. Briefly: Antiproliferative activity against AR-positive human 22Rv1 cells assessed as reduction in cell viability measured after 4 days by MTT assay. Format: functional, cell-based. Conditions: 22Rv1, 96 h.
For assay [4], the target named is Protein cereblon/Bromodomain-containing protein 4 (Homo sapiens) (UniProt O60885+Q96SW2). Briefly: Protac activity at BRD4/CRBN in AR-positive human VCaP cells assessed as degradation of BRD4 at 1 uM measured after 24 hrs in presence of MLN4924 by Western blot analysis. In kind it is cell-based.
Sequence of Protein cereblon/Bromodomain-containing protein 4 (Homo sapiens) (Q96SW2 whole entry, looked up, other chains not shown): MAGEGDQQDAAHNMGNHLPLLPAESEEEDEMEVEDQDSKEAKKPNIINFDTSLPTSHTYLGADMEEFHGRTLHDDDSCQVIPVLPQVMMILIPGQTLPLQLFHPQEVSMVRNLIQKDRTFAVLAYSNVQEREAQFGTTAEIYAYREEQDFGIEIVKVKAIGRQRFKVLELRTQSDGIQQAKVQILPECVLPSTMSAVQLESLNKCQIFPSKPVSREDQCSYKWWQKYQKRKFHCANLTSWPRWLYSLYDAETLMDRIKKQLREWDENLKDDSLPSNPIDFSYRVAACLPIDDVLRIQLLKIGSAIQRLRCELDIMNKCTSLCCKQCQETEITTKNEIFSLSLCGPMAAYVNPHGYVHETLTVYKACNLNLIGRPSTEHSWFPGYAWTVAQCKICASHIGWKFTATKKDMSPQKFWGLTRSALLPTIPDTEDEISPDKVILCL
The subject of assay [5] is VCaP. Briefly: Downregulation of BMPR1B gene expression in AR-positive human VCaP cells at 100 nM measured after 24 hrs by RT-qPCR analysis. In kind it is functional, cell-based. (In general: Quantitative PCR measures a nucleic acid by following its amplification.)
The subject of assay [6] is CWR22R. Briefly: Induction of apoptosis in AR-positive human 22Rv1 cells assessed as upregulation of cleaved caspase-3 level measured after 72 hrs by Annexin V-FITC/PI staining based flow cytometry method. Format: functional, cell-based. The settings on record: dose 100-1000 nM, DDE = dose-dependent effect.
The test system of assay [7] is VCaP. Nature of the assay: Downregulation of PSA gene expression in AR-positive human VCaP cells at 100 nM measured after 24 hrs by RT-qPCR analysis. Format: functional, cell-based.
Assay [8] concerns LNCaP. Briefly: Antiproliferative activity against AR-positive harmone sensitive human LNCaP cells assessed as reduction in cell viability at 100 to 300 nM incubated for 3 days followed by compound washout and measured after 8 days. Format: functional. Conditions: dose 100-300 nM, time 3 day.
The subject of assay [9] is VCaP. Briefly: Downregulation of c-Myc […] expression level in AR-positive human VCaP cells measured after 24 hrs by Western blot analysis. Format: functional, cell-based. The settings on record: dose 1-10000 nM, DDE = dose-dependent effect.
Assay [10] addresses Serine/threonine-protein kinase PLK1 (Homo sapiens, UniProt P53350). Briefly: Inhibition of PLK1 in AR-positive human 22Rv1 cells at 100 nM measured after 3 hrs in presence of cycloheximide by Western blot analysis. Format: cell-based.
The subject of assay [11] is CWR22R. Briefly: Induction of cell cycle arrest in AR-positive human 22Rv1 cells assessed as downregulation of cyclin E expression at 100 to 1000 nM measured after 72 hrs by Western blot analysis. The settings on record: dose 100-1000 nM. In kind it is functional, cell-based.
Assay [12] deals with CWR22R. Nature of the assay: Induction of cell cycle arrest in AR-positive human 22Rv1 cells assessed as accumulation of cells at G0/G1 phase at 100 to 1000 nM measured after 72 hrs by flow cytometry analysis. In kind it is functional, cell-based. The settings on record: dose 100-1000 nM.

Sequence of Serine/threonine-protein kinase PLK1 (P53350 whole entry): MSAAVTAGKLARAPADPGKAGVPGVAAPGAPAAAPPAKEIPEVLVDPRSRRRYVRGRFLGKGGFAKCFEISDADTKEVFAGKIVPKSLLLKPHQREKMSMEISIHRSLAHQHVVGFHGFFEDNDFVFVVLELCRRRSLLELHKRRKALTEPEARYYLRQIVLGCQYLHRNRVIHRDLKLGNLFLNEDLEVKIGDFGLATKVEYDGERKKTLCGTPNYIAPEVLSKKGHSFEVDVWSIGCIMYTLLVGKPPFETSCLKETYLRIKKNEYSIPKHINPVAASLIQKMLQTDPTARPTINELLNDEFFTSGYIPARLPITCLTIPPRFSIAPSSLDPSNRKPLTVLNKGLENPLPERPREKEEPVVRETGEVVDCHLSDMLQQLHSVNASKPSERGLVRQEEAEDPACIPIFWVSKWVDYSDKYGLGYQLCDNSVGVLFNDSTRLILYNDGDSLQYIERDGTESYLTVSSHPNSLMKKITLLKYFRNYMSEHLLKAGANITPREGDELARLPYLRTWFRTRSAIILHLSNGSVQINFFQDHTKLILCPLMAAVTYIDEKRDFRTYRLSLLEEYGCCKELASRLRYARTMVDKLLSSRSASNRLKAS

By IC50 is commonly meant the concentration needed to halve the response being measured. As to `CC[C@@H]1c2nnc(C)n2-c2cnc(Nc3ccc(C(=O)NC4CCN(C(=O)COc5cccc6c5C(=O)N(C5CCC(=O)NC5=O)C6=O)CC4)cc3OC)nc2N1CC1CCCCC1` (some centres not stated), the outcome in [1], in assay [4], in assay [5], in [7], in [11] and in assay [12] was Active. The IC50 worked out at 10 µM in [2] and 53 nM in [3]. For the same compound, the Activity entry in [6] and in assay [9] was “Dde” throughout. In addition, the “inhibition (INH)” value in [8] is recorded as 100%. In assay [10], the inhibition entry was “Active”.
